# Experimental data from patent US20240118287A1, “ANALYSIS PLATE FOR A MASS SPECTROMETRY ANALYSIS AND ASSOCIATED METHOD FOR CHARACTERIZING MICROORGANISMS BY MASS SPECTROMETRY” (priority 2021, published 2024).
# What was measured:
# Assay type in all cases: cell-based
# [1] = test system: Ref 1 K. pneumoniae; experiment: MIC by microdilution in broth, reference strain Ref 1; design: key to Phenotype (R = resistant, S = sensitive): RA signifies resistance to amoxicillin; RC signifies resistance to ceftriaxone; RM signifies resistance to meropenem; RO resistance to oxacillin; SA signifies sensitive to amoxicillin; SC signifies sensitive to ceftriaxone; SM signifies sensitive to meropenem; SO sensitive to oxacillin; details: for Phenotype (R = resistant, S = sensitive): KPC-2; for MIC: Klebsiella pneumoniae, KPC-2, microdilution in broth, read-out: Minimum inhibitory concentration (MIC in μg/ml)
# Description: (§1) The minimum inhibitory concentration (MIC in μg/ml) was determined by microdilution in broth, a technique very widely used by a person skilled in the art.
# [2] = test system: Ref 2 K. pneumoniae; experiment: MIC by microdilution in broth, reference strain Ref 2; design: key to Phenotype (R = resistant, S = sensitive): RA signifies resistance to amoxicillin; RC signifies resistance to ceftriaxone; RM signifies resistance to meropenem; RO resistance to oxacillin; SA signifies sensitive to amoxicillin; SC signifies sensitive to ceftriaxone; SM signifies sensitive to meropenem; SO sensitive to oxacillin; details: for MIC: Klebsiella pneumoniae, OXA-48, microdilution in broth, read-out: Minimum inhibitory concentration (MIC in μg/ml); for Phenotype (R = resistant, S = sensitive): OXA-48
# Description: as §1
# [3] = test system: Isolate 3 (Escherichia coli); experiment: Resistance characterization on functionalized analysis plate, MALDI-TOF (Example 4); details: threshold identification probability ≥90% for at least 3 deposits out of 4, amoxicillin 2, ceftriaxone 24, meropenem 2 μg/ml
# Description: (§2) This cassette comprises a gasket so as to be able to dispose the analysis plate on a sponge impregnated to saturation with Muller-Hinton culture medium. The sponge impregnated with a culture medium serves as a support, and it is made of porous material as described in the description.
# (§3) A cover was placed on the cassette containing the analysis plate so as to be clipped on the cassette and close the device without touching the top of the drops.
# (§4) The analysis cassettes thus prepared were incubated in the stove at 37° C. for 2, 3, 4 or 5 hours.
# (§5) At the end of the incubation step, the analysis plates are placed on very absorbent, dry blotting paper, with an absorption capacity of 25 μL·cm^−2, so that the drops present on the analysis plate are aspirated by capillarity through the analysis zones made of porous material.
# (§6) 1 μl of HCCA matrix, alpha-cyano 4-hydroxycinnamic acid (VITEK®MS-CHCA, bioMérieux reference 411071) was deposited on the analysis zones, comprising the microorganisms and the antimicrobial agent, and on the calibration zones comprising the calibrant.
# (§7) The analysis plate is then dried and analyzed by VITEK®MS as described in example 1.
# (§8) The isolates identified in example 1 were diluted to 0.5 McFarland (McF) in Muller-Hinton medium (bioMérieux reference AEB 110699), then diluted again to 1/100° for the Gram-negative bacteria and to 1/10° for the Gram-positive bacteria, always in Muller-Hinton medium.
# (§9) Drops of 2 μl of the final dilutions were deposited on the analysis zones of the analysis plates according to the invention as described in example 2. As before, the dilutions of E. coli and of K. pneumoniae were analyzed on the targets with 16 deposits of amoxicillin, 16 deposits of ceftriaxone and 16 deposits of meropenem. The dilutions of Staphylococci were analyzed on the targets with 2 μg/ml of oxacillin.
# (§10) The analysis was carried out according to the same procedure as in example 3 with an incubation of 4 h for all the microorganisms. Moreover, the results were interpreted as in example 3, i.e. with a threshold of identification probability greater than or equal to 90% for at least 3 deposits out of 4.
# [4] = test system: Isolate 1 (Escherichia coli); experiment: as above; details: threshold identification probability ≥90% for at least 3 deposits out of 4, amoxicillin 2, ceftriaxone 24, meropenem 2 μg/ml
# Description: as §2, §3, §4, §5, §6, §7, §8, §9, §10
# [5] = test system: Isolate 7 (Klebsiella pneumoniae); experiment: as above; details: isolate 7 (K. pneumoniae); threshold identification probability ≥90% for at least 3 deposits out of 4; amoxicillin 2, ceftriaxone 24, meropenem 2 μg/ml
# Description: as §2, §3, §4, §5, §6, §7, §8, §9, §10
# [6] = test system: Isolate 5 (Escherichia coli); experiment: as above; details: isolate 5 (E. coli); threshold identification probability ≥90% for at least 3 deposits out of 4; amoxicillin 2, ceftriaxone 24, meropenem 2 μg/ml
# Description: as §2, §3, §4, §5, §6, §7, §8, §9, §10
# [7] = test system: Isolate 8 (Klebsiella pneumoniae); experiment: as above; details: isolate 8 (K. pneumoniae); threshold identification probability ≥90% for at least 3 deposits out of 4; amoxicillin 2, ceftriaxone 24, meropenem 2 μg/ml
# Description: as §2, §3, §4, §5, §6, §7, §8, §9, §10
# [8] = test system: Ref 4 E. coli; experiment: MIC by microdilution in broth, reference strain Ref 4; design: key to Phenotype (R = resistant, S = sensitive): RA signifies resistance to amoxicillin; RC signifies resistance to ceftriaxone; RM signifies resistance to meropenem; RO resistance to oxacillin; SA signifies sensitive to amoxicillin; SC signifies sensitive to ceftriaxone; SM signifies sensitive to meropenem; SO sensitive to oxacillin; details: for MIC: Escherichia coli, microdilution in broth, read-out: Minimum inhibitory concentration (MIC in μg/ml)
# Description: as §1
# [9] = test system: Ref 5 E. coli; experiment: MIC by microdilution in broth, reference strain Ref 5; design: key to Phenotype (R = resistant, S = sensitive): RA signifies resistance to amoxicillin; RC signifies resistance to ceftriaxone; RM signifies resistance to meropenem; RO resistance to oxacillin; SA signifies sensitive to amoxicillin; SC signifies sensitive to ceftriaxone; SM signifies sensitive to meropenem; SO sensitive to oxacillin; details: CTX-M; for MIC: Escherichia coli, microdilution in broth, read-out: Minimum inhibitory concentration (MIC in μg/ml)
# Description: as §1
# [10] = test system: Ref 3 E. coli; experiment: MIC by microdilution in broth, reference strain Ref 3; design: key to Phenotype (R = resistant, S = sensitive): RA signifies resistance to amoxicillin; RC signifies resistance to ceftriaxone; RM signifies resistance to meropenem; RO resistance to oxacillin; SA signifies sensitive to amoxicillin; SC signifies sensitive to ceftriaxone; SM signifies sensitive to meropenem; SO sensitive to oxacillin; details: for MIC: Escherichia coli, TEM-2, microdilution in broth, read-out: Minimum inhibitory concentration (MIC in μg/ml); for Phenotype (R = resistant, S = sensitive): TEM-2
# Description: as §1
smiles,measurement,setting,value
"CC1(C)S[C@@H]2[C@H](NC(=O)[C@H](N)c3ccc(O)cc3)C(=O)N2[C@H]1C(=O)O [Amoxicillin, amoxicillin]","Phenotype (R = resistant, S = sensitive)",[1],RA
same,MIC,[1],> 128 µg/mL
same,MIC,[2],64 µg/mL
same,"Phenotype (R = resistant, S = sensitive)",[2],RA
same,Isolate characterized as resistant or sensitive to the antibiotic,[3],resistant
same,Isolate characterized as resistant or sensitive to the antibiotic,[4],resistant
same,Isolate characterized as resistant or sensitive to the antibiotic,[5],resistant
same,Isolate characterized as resistant or sensitive to the antibiotic,[6],resistant
same,Isolate characterized as resistant or sensitive to the antibiotic,[7],resistant
same,"Phenotype (R = resistant, S = sensitive)",[8],SA
same,MIC,[8],1 µg/mL
same,"Phenotype (R = resistant, S = sensitive)",[9],RA
same,MIC,[9],> 128 µg/mL
same,MIC,[10],32 µg/mL
same,"Phenotype (R = resistant, S = sensitive)",[10],RA
"CO/N=C(\C(=O)N[C@@H]1C(=O)N2C(C(=O)O)=C(CSc3nc(=O)c(=O)[nH]n3C)CS[C@H]12)c1csc(N)n1 [Ceftriaxone, ceftriaxone]","Phenotype (R = resistant, S = sensitive)",[1],RC
same,MIC,[1],64 µg/mL
same,MIC,[2],32 µg/mL
same,"Phenotype (R = resistant, S = sensitive)",[2],RC
same,Isolate characterized as resistant or sensitive to the antibiotic,[3],resistant
same,Isolate characterized as resistant or sensitive to the antibiotic,[4],sensitive
same,Isolate characterized as resistant or sensitive to the antibiotic,[5],sensitive
same,Isolate characterized as resistant or sensitive to the antibiotic,[6],sensitive
same,Isolate characterized as resistant or sensitive to the antibiotic,[7],resistant
same,"Phenotype (R = resistant, S = sensitive)",[8],SC
same,MIC,[8],0.25 µg/mL
same,"Phenotype (R = resistant, S = sensitive)",[9],RC
same,MIC,[9],8 µg/mL
same,MIC,[10],16 µg/mL
same,"Phenotype (R = resistant, S = sensitive)",[10],RC
